# According to PMC12914960, “Repurposing a detrimental antibody epitope as targeted therapeutics for sepsis and rheumatoid arthritis” (Military Medical Research, 2026):
# Values joined by “and” are separate entries in the source; they are usually repeats but may differ in a detail not shown here. Equal values may be shown once. Where a SMILES comes first, the peptide text is derived from it.
# What was measured:
# human PBMCs = experiment: HMGB1-induced cytokine/chemokine secretion by PBMCs, cytokine antibody arrays; type: cell-based; details: P2-1 5.0 or 10.0 µg/ml, 16 h
# Procedure: Human blood was purchased from the New York Blood Center (Long Island City, NY, USA), and PBMCs were isolated via density gradient centrifugation through Ficoll (Ficoll-Paque PLUS) as previously described. PBMCs were cultured in RPMI-1640 supplemented with 10% human serum, 2 mmol/L L-glutamine, 100 U/ml penicillin, and 100 µg/ml streptomycin (all from Invitrogen, Carlsbad, CA, USA). For experiments, PBMCs were stimulated with recombinant HMGB1 (0.5 or 2.0 µg/ml) for 16 h, either alone or in combination with P2-1 at 5.0 or 10.0 µg/ml. Cell-free supernatants were collected for analysis of cytokine/chemokine levels via cytokine antibody arrays, or pCTS-L levels via Western blotting analysis as previously described.
# The levels of cytokines and chemokines in mouse serum and joint tissue lysates, or human PBMC culture supernatants, were determined via murine or human cytokine antibody arrays (e.g., Cat. #AAM-CYM-3–8 or Cat. #AAH-CYT-3–8, RayBiotech Inc., Norcross, GA, USA) as previously described. For the sepsis model, blood samples were collected from the mice (n = 4) at 24 h post-CLP. […] Arrays were performed according to the manufacturer’s protocol, followed by chemiluminescent detection and densitometric quantification as previously described. […]
# [1] = tested on: CAIA-induced joint cytokines and chemokines; experiment: Cytokine antibody arrays of joint tissue of CAIA mice; type: in vivo, mouse; set-up: VCAM1 / sTNFRI / sTNFRII / MIP-1gamma / MIP2 / P-selectin: unit not given here
# Procedure: The levels of cytokines and chemokines in mouse serum and joint tissue lysates, or human PBMC culture supernatants, were determined via murine or human cytokine antibody arrays (e.g., Cat. #AAM-CYM-3–8 or Cat. #AAH-CYT-3–8, RayBiotech Inc., Norcross, GA, USA) as previously described. For the sepsis model, blood samples were collected from the mice (n = 4) at 24 h post-CLP. For the CAIA model, soft tissues from the hindpaw and ankle joints were carefully harvested from normal (n = 2) and CAIA (n = 4) mice using a previously established protocol. Briefly, 0.5 g of fresh soft tissue was cut into 3 mm pieces and mixed with 400 µl of a hypertonic solution (500 ml of PBS with 4.5 g of NaCl and 2 × protease inhibitor cocktail) in a 10 ml syringe. Mechanical extrusion, involving 30 rapid back-and-forth movements of the plunger, was then performed. The expelled extracellular fluid was collected, immediately aliquoted, and stored at −20 °C until analysis. Cell-conditioned medium was collected from PBMC cultures after 16 h of stimulation. Arrays were performed according to the manufacturer’s protocol, followed by chemiluminescent detection and densitometric quantification as previously described.
# Fig. S5 Representative cytokine antibody arrays depicting the effect of P2- 1 on collagen antibody- induced
# arthritis (CAIA)- induced joint inflammation. Representative images from cyt okine antibody arrays of j oint
# tissue lysates from 4 vehicle-treated CAIA mice and 4 P2-1- treated CAIA mice (harvested on Day 10). […]
# [2] = CAIA + P2-1, joint tissue Day 10, individual values, P = 0.00077753
structure (smiles),measurement,setting,value
CCCC[C@H](NC(=O)[C@H](Cc1c[nH]cn1)NC(=O)[C@@H](NC(=O)[C@H](CCCCN)NC(=O)[C@@H](N)[C@@H](C)O)C(C)C)C(=O)N[C@@H](CCCCN)C(=O)N[C@@H](CO)C(=O)N[C@@H](Cc1ccccc1)C(=O)N[C@@H](CC(C)C)C(=O)N[C@@H](C)C(=O)N[C@@H](Cc1ccccc1)C(=O)N[C@@H](CCC(N)=O)C(=O)N[C@H](C(=O)N[C@@H](CCCCN)C(=O)N[C@H](C(=O)O)[C@@H](C)O)[C@@H](C)O [P2-1] (HELM PEPTIDE1{T.K.V.H.[Nle].K.S.F.L.A.F.Q.T.K.T}$$$$V2.0; N-terminus and C-terminus assumed),"HMGB1-induced cytokine/chemokine secretion, in words",human PBMCs,did not broadly inhibit the secretion of these HMGB1-induced cytokines and chemokines
same,VCAM1,"[1]; CAIA + P2-1, joint tissue Day 10, individual values, P = 0.0007706",4 and 4.5 and 8.2 and 10.3 and 3.3 and 1.2 and 0.7
same,sTNFRI,[1]; [2],23.4 and 20.4 and 17.4 and 17 and 24.9 and 22.3 and 40 and 36.8
same,sTNFRII,[1]; [2],12.4 and 11.7 and 6.5 and 5.7 and 3.2 and 2.8 and 5.8 and 5.9
same,MIP-1gamma,"[1]; CAIA + P2-1, joint tissue Day 10, individual values, P = 0.00163",39.6 and 44.2 and 29 and 33.7 and 41.8 and 44.8 and 49.9 and 50.4
same,MIP2,"[1]; CAIA + P2-1, joint tissue Day 10, individual values, P = 0.02067",2.5 and 2.7 and 4.3 and 4.8 and 5.9 and 7.2 and 5.1 and 5.2
same,P-selectin,"[1]; CAIA + P2-1, joint tissue Day 10, individual values, P = 0.04584",3.6 and 4 and 3.4 and 5.3 and 5.6 and 7.5 and 8
same,"joint inflammation, in words",[1]; P2-1 prophylactic,"significantly reducing joint levels of sTNFRI and sTNFRII, the chemokine MIP-1γ/CCL9, and VCAM-1"
same,"joint tissue inflammation, in words","[1]; P2-1 therapeutic, sTNFRI, sTNFRII, MIP-1γ/CCL9, VCAM-1, Day 10",significantly reduced CAIA-induced joint tissue inflammation
